Measured values: a melting point compilation (Tetko et al.; mined from patent text by program, amines drawn as free bases though some values may be those of a salt)

| melting point [°C] | SMILES |
| --- | --- |
| 122 to 124 | CC(C)(C)OC(=O)N[C@H]1COc2ccccc2N(CC(=O)OCc2ccccc2)C1=O |
| 95 | O=[N+]([O-])c1ccccc1OCc1csc(-c2ccccc2)n1 |
| 56 to 57 | CC(=O)SCCc1noc(C(C)c2ccc(-c3ccccc3)c(F)c2)n1 (centres undefined) |
| 203 to 205 | CS(=O)(=O)c1ccc(-n2cccc2-c2ccc(Cl)cc2)cc1 |
| 155 | CC(NC(=O)CNC(=O)c1c(Cl)cccc1Cl)c1ccccc1 (centres undefined) |
| 121 to 123 | CCCC(NS(=O)(=O)c1ccc(Cl)cc1)C(=S)Nc1ccc(CC(=O)OCC)cc1 (racemic) |
| 266 | Cn1c(=O)c(C#N)c(N2CCN(C(=O)c3cccs3)CC2)c2cccnc21 |
| 160 | COC(=O)c1ccc2c(c1)S(=O)(=O)c1ccccc1O2 |
| 126 to 129 | COc1cccc2c1CCc1c-2nc2ccccc2c1N |
| 116 to 118 | CN1C(=O)C2C3C=CC(C3)C2(c2ccc3c(c2)OCO3)C1=O (centres undefined) |
| 185 to 190 | CN1C(=O)CC[C@]2(C)c3ccc(-c4ccc5c(c4)CCC5O)cc3CC[C@@H]12 (some centres undefined) |
| 233 to 235 | CCn1cc(C(=O)O)c(=O)c2cc(F)c(N[C@@H]3CCC[C@@H]3N)cc21 (relative stereo) |
| 238 | O=C(Oc1ccc2c(OC(=O)c3ccc(O)c(Cl)c3)c3ccccc3cc2c1OC(=O)c1ccc(O)c(Cl)c1)c1ccc(O)c(Cl)c1 |
| > 350 | CS(=O)c1ccc2[nH]c3cc(C(=O)Nc4nnn[nH]4)nn3c(=O)c2c1 (centres undefined) |
| 97 to 98 | CCC(CC)NC(=O)c1ccc(-c2scc(Br)c2CC(=O)OC)cc1 |
| 134 to 137 | CC(=O)C(=Cc1ccc(O)c(O)c1)C(C)=O |
| 65 to 67 | COC(=O)c1ccc(Sc2ccc(OCCCCl)cc2)cc1 |
| 128 to 130 | CC(C)n1c(C(=O)O)c(-c2ccc(F)cc2)c2ccccc2c1=O |
| 114 to 116 | CN(CCCCCCO)c1ccc(N=Nc2ccc(S(C)(=O)=O)cc2)cc1 |
| 107 to 108 | CCOC(=O)c1cnn(C)c1NCc1ccc(-c2ccccc2C#N)cc1 |
| 79 to 81 | Cc1ccc2c(c1C)OC(C)(C)C2=O |
| 242 | CCCCOc1ccc(S(=O)(=O)C2(C(=O)O)CCN(Cc3ccc(C#N)cc3)CC2)cc1 |
| 49.5 to 50 | Cc1ccc(S(=O)(=O)OCC(C)O)cc1 (racemic) |
| 104 | COc1ccccc1-c1cccc(CC(NC(=O)c2c(Cl)cccc2Cl)C(=O)O)c1 (racemic) |

| melting point [°C] | SMILES |
| --- | --- |
| 138 to 139 | CCc1cc2c3ccccc3c(C=O)cc2c2ccccc12 |
| 98 to 102 | CCOC(=O)Cc1csc(NC(=O)C(N)Cc2cccs2)n1 (centres undefined) |
| 177 to 179 | NS(=O)(=O)c1nc(-c2ccccc2F)ns1 |
| 92 to 94 | C=CCSCC(O)(Cn1cncn1)c1ccc(Cl)cc1Cl (centres undefined) |
| 228 to 229 | CCc1noc(-c2cn(-c3ccc([N+](=O)[O-])cn3)cn2)n1 |
| 138 to 140 | CC(C)(C)c1ccc(O[C@@H]2CCNC[C@H]2O)cc1 (relative stereo) |
| 140 to 142 | CC(=O)c1sc(-c2ccncc2)c(-c2ccncc2)c1C |
| > 240 | COc1cc(Nc2c(C#N)cnc3sc(-c4ccc(C=O)cc4)cc23)c(Cl)cc1Cl |
| 110 to 115 | CC(NC(=O)c1ccc(C2(C)C(=O)Nc3cc(Cl)cc(Cl)c3C2=O)cc1)c1ccccc1 (centres undefined) |
| 163 | CCOC(=O)c1ccc2c(c1)N(C(=O)C(C)Br)c1ccccc1C=C2 (centres undefined) |
| 156 | Fc1ccc(Cn2c(NC3CCN(CCOc4nccs4)CC3)nc3ccccc32)cc1 |
| 185 | S=C(NC1CC1)N1CCc2[nH]cnc2C1 |
| 239 to 242 | CNC(=O)c1ccc(N2CCN(c3ccncc3)CC2)cc1 |
| 180 | CC(=NO)[C@H]1C[C@H](C(=O)OC(C)(C)C)N(C(=O)CNC(=O)Nc2cccc(C(=O)O)c2)[C@@H]1c1ccccc1 (racemic) |
| 139 to 140 | C[C@@H]1CN(C(=O)OC(C)(C)C)C[C@H]2Cc3cc(F)c(C=O)nc3N21 |
| 138 to 140 | Cc1cccc(NC(=O)CCCCl)c1CNc1cccn2c(C)c(C)nc12 |
| 63 to 65 | N#CCCN(CCC#N)CCN(CCC#N)CCC#N |
| 181 | CCC(C)COc1ccc(-c2ccc(O)cc2)cc1C#N (centres undefined) |
| 206 | Nc1nc(NCCN2CCC(NC3(Cc4ccc(F)cc4)Nc4ccccc4N3)CC2)ccc1[N+](=O)[O-] |
| 63.5 to 64.5 | O=C(c1cnc2c(n1)CCCC2)C1CCCCC1 |
| 140 to 141 | CCCNc1nc(N)nc(C)c1/C=C/C(C)(C)c1ccc(C(F)(F)F)cc1 |
| 259 | Cn1cc(-c2cc(-c3cnc4ccccc4c3)ccn2)n(-c2ccc(C(C)(C)C(N)=O)cc2)c1=O |
| 120 to 121 | CCOC(=O)C(=O)Oc1cccc(-c2cn3c(n2)sc2ccccc23)c1 |
| 86 to 88 | CC(c1ccccc1)N1CCC(CO)C1 (centres undefined) |

| melting point [°C] | SMILES |
| --- | --- |
| 188 to 190 | O=C(c1ccc([N+](=O)[O-])c(OCc2ccc(-c3ccccc3-c3nnnn3C(c3ccccc3)(c3ccccc3)c3ccccc3)cc2)c1)N1CCOCC1 |
| 95 to 96 | COc1nccnc1C1=CN2CCC1CC2 |
| 105 to 107 | CCOC(=O)c1ccc(C)c(NC(=O)C2=C(C)OCCS2)c1 |
| 62 to 64 | CCCCCCCCCCCCc1nnn(C(C(N)=O)(c2ccccc2)c2ccc(F)cc2F)n1 (centres undefined) |
| 166 to 167 | CS(=O)(=O)c1nccn1-c1nc(-c2ccc(Cl)cc2)c(CCC(=O)O)o1 |
| 104 to 108 | CON=C(c1ccon1)c1ccccc1COc1cc(C)ccc1C |
| 128 to 130 | CN(C)S(=O)(=O)c1ccc(Oc2ccc(S(C)(=O)=O)cc2)cc1 |
| 83 to 84 | COC(=O)C1=Cc2cc(Br)ccc2CCC1 |
| 158 to 160 | COC(=O)C1Oc2ccc(C)cc2Cc2cc(C)ccc2O1 |
| 165 to 168 | Cc1cc2ccncc2c(=N)c2ccccc12 |
| 130 to 132 | CCn1cc(C(=O)OCC(=O)OCC2CCCCC2)c(=O)c2ccc(C)nc21 |
| 211 to 215 | Cc1ccccc1C(=O)c1ccc(Nc2ccccc2NS(=O)(=O)c2ccccc2)cc1Cl |
| 118 to 120 | NC(=O)C(c1cccc(F)c1)N(C(=O)c1cccn2ccnc12)C(F)(F)F (centres undefined) |
| 57 to 58 | CCCc1nc(-c2ccc(OCCCn3ccnc3)cc2)no1 |
| 207 to 209 | CNc1ccc2c(c1)N(C)C(=O)N(c1ccc(Cl)cc1)S2(=O)=O |
| 226 to 227 | O=c1c(Cc2cccnc2)cc2cccnc2n1-c1cccc([N+](=O)[O-])c1 |
| 108 to 109 | COc1ccc(COC(=O)NCCc2c[nH]c3ccccc23)cc1 |
| 128 to 130 | O=C(c1cccnc1Cl)N1CCN=C1Cc1ccccc1Cl |
| 91.7 to 93.2 | CC(C)Cn1c(SCc2ccccn2)nc2ccccc2c1=O |
| 189 to 190 | Cn1c(=Nc2ccccc2)sc2ncccc2c1=O |
| 120 to 125 | COC(=O)COc1c2ccccc2cc2c1c1c(C(N)=O)cccc1n2Cc1ccccc1 |
| 212 to 215 | CCOC(=O)/C=C/c1cnc(-c2ccc(O)c(C34CC5CC(CC(C5)C3)C4)c2)cn1 |
| 82 | Cc1nn(-c2c(Cl)cc(C(F)(F)F)cc2Cl)nc1Br |
| 79.5 to 81 | Cc1cc(OC(=S)N(C)C)c(C(C)(C)C)cc1C=O |

| melting point [°C] | SMILES |
| --- | --- |
| 101 to 103 | COc1ccc(CNc2ccccc2C(=O)Nc2ccc(Br)c(C(F)(F)F)c2)cn1 |
| 79 to 80 | CS(=O)(=O)NCCCNC(=O)c1cccc(-c2cccc3oc(Cc4cccc(C(F)(F)F)c4)cc23)c1 |
| 82 | Cc1ccc(CCC(=O)O)cc1C |
| 143 | COC(=O)c1ccc(Cc2cc3cc(Cl)ccc3n2S(C)(=O)=O)cc1 |
| 194 to 196 | CC(=O)c1ccc(Nc2cc(C)nc(N)n2)cc1 |
| 157 to 162 | C[C@H](Nc1nc(C(N)=O)nc(Cl)c1-c1c(F)cc(F)cc1F)C(F)(F)F |
| 59 to 61 | C=CS(=O)(=O)CS(=O)(=O)C=C |
| 104 to 107 | Cc1ccc(-c2ccc(-c3ccccc3)cc2)n1CC[C@H]1C[C@H](O)CC(=O)O1 (relative stereo) |
| 51 to 52 | CCCCCC(CC(=O)O)c1ccc(OC)cc1OC (single isomer, unassigned; (+)) |
| 273 | CNC(=O)c1ccc(C=CC(=O)O)cc1 |
| 162 to 163 | Cc1ccc(C)c(NC(=O)CCc2ccc(O)c(N)c2)c1 |
| 68 to 70 | C#CCOC(=O)c1ccc2ccccc2c1 |
| 106 to 109 | CS(=O)(=O)c1ccc(C(CC2CCOCC2)c2cnc(-c3ccccn3)[nH]2)cc1Cl (centres undefined) |
| 212 to 213 | NC(=NC(=O)Cn1c(Cl)ccc1Cl)NC(=O)c1ccccc1 |
| 139 to 140 | COc1ccc2c(c1)CCc1nn(-c3ccccn3)c(O)c1-2 |
| 129 to 130 | CS(=O)(=O)c1cnc(Cl)c(Cl)c1 |
| 74 to 76 | CS(=O)(=O)c1ccc(-c2cc(=O)n(CC3CCC3)nc2-c2ccc(F)cc2)cc1 |
| 209 to 210 | CC(C)(C)c1nc2c(Cl)ccc(C(=O)O)c2o1 |
| 152 | CCCC1CCC(C2CCc3c4c(c(F)c(F)c3O2)OCCC4)CC1 (centres undefined) |
| 131 to 133 | Fc1cc(F)c2c(c1)C[C@@H](n1ccn(CCc3ccccc3)c1=S)CC2 |
| 159 to 162 | CCOC(=O)c1cn(-c2nnc(C)s2)c2nc(Cl)c(F)cc2c1=O |

| SMILES | melting point [°C] |
| --- | --- |
| CC1Cc2cc3c(cc2C(c2ccc([N+](=O)[O-])cc2)=NN1)OCO3 (centres undefined) | 162 to 164 |
| CC(C#N)(Cc1c[nH]cn1)c1ccccc1 (centres undefined) | 187 to 189 |
| CN(C)C1(c2ccccc2)CCC(CNC(=O)N2CCC(c3c[nH]c4ccccc34)CC2)CC1 (centres undefined) | 104 to 107 |
| COCCC1CCN(c2ccc(C#N)c3sccc23)C1 (centres undefined) | 88 to 89 |
| CCOC(=O)c1cccc(C2(C(N)=O)C(=O)N(CC(=O)N(c3ccccc3)C(C)C)c3ccccc3N(c3ccccc3)C2=O)c1 (centres undefined) | 187 to 188 |
| CCc1cc2c3c(ccc2[nH]1)OCC(CN1CC=C(c2c[nH]c4ccccc24)CC1)O3 (centres undefined) | 175 to 177 |
